In patent US7268118B2, “Thymosin β4 compositions” (United States of America as represented by The Secretary of …, priority 1998, dated 2007):

Assays:
primary keratinocytes = assay: Keratinocyte migration assay in Boyden chamber; format: cell-based, mice
Protocol: Primary keratinocytes were prepared from either Balb/c or CD-1 newborn mice as described previously (Dlugosz et al., 1995). Cells were plated in calcium- and magnesium-free Eagle's Minimal Essential Medium (EMEM) containing 8% fetal calf serum treated with 8% Chelex (Bio-Rad Laboratories, Hercules, Calif.), 20 units/ml penicillin-streptomycin, and the calcium concentration was adjusted to 0.25 mM. The following day, cultures were washed with calcium- and magnesium-free phosphate buffered saline, treated briefly with Trypsin (Life Technologies, Gaithersburg, Md.), washed with culture medium and resuspended in EMEM containing 0.05 mM calcium. Cells were used immediately in migration assays.
Keratinocyte migration assays were carried out in Boyden chamber using 12 μm pore polyester membranes (Poretics, Livermore, Calif.) coated with a 0.1 mg/ml solution of collagen IV in dH2O (Trevigen, Gaithersburg, Md.). Filters were then dried at least 1 h. Cells were harvested using Versene or Trypsin (Life Technologies, Gaithersburg, Md.) and resuspended in Eagle's minimal essential medium with 0.05 mM Ca^2+. The bottom chamber was loaded with EMEM containing 0.01, 0.1, 10, 100, and 1000 ng/ml of synthetic Tβ4. […] The cells that migrated through the filter were quantitated by counting the center of each well at 10× using an Olympus CK2 microscope. […]

[1] = system: full thickness cutaneous rat wound; assay: Full thickness punch biopsy wound healing in rats; format: in vivo; conditions: for decrease in wound width relative to saline treated controls: intraperitoneal 60 μg in 300 μl
Protocol: Full thickness 8 mm punch biopsy wounds were made on the dorsal surface of rats as previously reported (Bhartiya et al., J. Cell. Physiol. 150:312, 1992; Sihhu et al., J. Cell. Physiol. 169:108, 1996) and Tβ4 was given topically at the time of wounding (5 μg in 50 μl) and again after 48 hours. Controls for the topical treatment received identical amounts of saline at the time of wounding and at 48 hours. Additional rats received intraperitoneal injections at the time of wounding (60 μg in 300 μl) and again every other day (e.g., days 0, 2, 4, and 6). Controls for these animals received identical amounts of saline intra-peritoneally on the same injection schedule. On days 4 and 7 post-wounding, measurements were made on the wound size. At days 8 and 9 post-wounding, tissue was collected and fixed in 10% buffered formalin. The samples were sectioned and stained with H&E and Masson's Trichrome (American Histolabs, Gaithersburg, Md.).
Histological sections were used to measure the re-epithelialization and the contraction of the wound using an ocular micrometer. Epidermal migration was determined by measuring the lengths of the tongues of epithelium migrating form either side of the wound over the wound bed from the zone of proliferation at the margin of the uninjured and wounded skin. Epidermal thickness was also measured beginning at the junction of the uninjured and proliferating epidermis. The thickness was measured vertically from the basement membrane to the most superficial layer of the migrating epidermis at every 200 microns. The mean epidermal thickness of each migrating tongue of epidermis was then computed from each wound. Vessel counts were performed by first identifying vascular spaces by their endothelial lining. All such vessels in the wound bed were counted including those at the junction of the dermis and the subcutis, since angiogenesis into the wounds occurs to a great extent from these vessels. The numbers were averaged into vessel counts per 10 high powered fields (40×).
The effect of Tβ4 on wound healing was studied in a full thickness cutaneous rat wound model. […] This model allowed measurement of two parameters: the re-epithelialization (gap) and the contraction (width) of the wound.

[2] = system: wounds of steroid treated rats; assay: Impaired healing model (hydrocortisone treated rats); format: in vivo, rat
Protocol: Steroid treatment reduces the rate of wound repair in mammals. Rats treated with steroids such as hydrocortisone serve as a model of impaired wound healing due to the delay observed in wound closure. Animals were injected intramuscularly everyday with hydrocortisone.

Corneal Epithelial Cell = assay: Corneal epithelial cell migration assay in Boyden chamber; format: cell-based
Protocol: Corneal Epithelial Cell migration assays were carried out in Boyden chamber using 12 μm pore polyester membranes (Poretics, Livermore, Calif.) coated with a 0.1 mg/ml solution of collagen IV in dH2O (Trevigen, Gaithersburg, Md.). Filters were then dried at least 1 h. Cells were cultured and resuspended in Eagle's Minimal Essential Medium with 0.05 mM Ca^2+. The bottom chamber was loaded with EMEM containing 0.01, 0.1, 10, 100, and 1000 ng/ml of synthetic Tβ4. Conditioned medium from primary dermal fibroblasts and/or keratinocyte growth factor was added to several wells as a positive control. Cells were added to the upper chamber at a concentration of 50,000 cells per well. Chambers were incubated at 35 C/7% CO2 for 4-5 hours and the filters were then fixed and stained using Diff-Quik (Baxter Healthcare Corporation, McGraw Park, Ill.). The cells that migrated through the filter were quantitated by counting the center of each well at 10× using an Olympus CK2 microscope. Each condition was assayed in triplicate wells and each experiment was repeated four times with different preparations of cells. […] Migration was enhanced 2-3 fold over migration in the presence of media alone (FIG. 7) with the highest level of migration seen at 100 ng/ml of Tβ4.

[3] = system: de-epithelialized Rat corneas; assay: In vivo corneal re-epithelialization
Protocol: To determine the effect of Tβ4 on corneal re-epithelialization in vivo, Rat corneas were de-epithelialized and treated with Tβ4. Filters were soaked in heptanol, applied to the eye for 30 seconds, and then the epithelium was scraped. Various concentration of Tβ4 in saline was applied to the eye and at 24 hours the rats were sacrificed. The eyes were fixed, sectioned and the degree of corneal epithelial migration (as measured in pixels) was determined using a microscope with an internal caliper by a masked observer.

[4] = intraperitoneal injection, day 4
[5] = intraperitoneal injection, day 7

Substance: thymosin β4 [Tβ4]
- migration at the maximal responding dose versus positive control (primary keratinocytes): exceeded the positive control
- keratinocyte migration over media alone (primary keratinocytes; 4-5 hours, filters coated with collagen IV): 2-3 fold
- increase in the number of vessels in treated wounds ([1]; 7 day wounds): about 2 fold
- decrease in wound width as compared to the saline controls ([1]; FIG. 2, topical 5 μg in 50 μl, as early as 4 days after wounding, continued until day 7): 15%
- Epidermal Migration ([1]; I.P.): 3168.3 ± 38.4 μm
- Epidermal Thickness ([1]; I.P.): 135.0 ± 11.7 μm
- Vessels/10 HPF ([1]; I.P.): 2415.0 ± 24.3
- Epidermal Migration ([1]; Topical): 3668.7 ± 56.6 μm
- Epidermal Thickness ([1]; Topical): 142.3 ± 19.8 μm
- Vessels/10 HPF ([1]; Topical): 2186.0 ± 11.8
- re-epithelialization of the wound (histology) ([1]; day 7, intraperitoneal 60 μg/300 μl on alternate days): Increased re-epithelialization
- neovascularization of the dermis (histology) ([1]; day 7, intraperitoneal and topical): significant new capillaries
- re-epithelialization of the wound (histology) ([1]; day 7, topical 5 μg/50 μl): complete reepithelialization
- thickness of the migrating epidermis versus control ([1]; either Tβ4 treatment (I.P., topical)): no difference
- effect on wound healing at lower dose ([1]; intraperitoneal 6 μg in 300 μl): no effect
- effect on wound healing at lower dose ([1]; intraperitoneal 30 μg in 300 μl): reduced
- decrease in wound width relative to saline treated controls ([1]; day 4): 18%
- decrease in wound width relative to saline treated controls ([1]; day 7): 11%
- decrease in gap size relative to saline treated controls ([1]; intraperitoneal, 4th day post wounding): 42%
- migration of epidermal tongues as compared to controls ([1]; intraperitoneally treated wounds): statistically significant increase
- number of macrophages in the wounds ([1]; rat, in vivo): No increases
- effect on wound healing at lower dose ([1]; topical 0.5 μg in 50 μl): no effect
- effect on wound healing at lower dose ([1]; topical 2.5 μg in 50 μl): reduced
- wound healing as compared to untreated wounds ([1]; topical or intraperitoneal): significantly accelerated wound healing
- increase in migration of epidermal tongues over the wound bed ([1]; topical treatment): 1.5 fold
- decrease in gap length as compared to saline controls ([1]; topical, 4 days after wounding): 18%
- decrease in width, treated versus controls ([1]; topical, time not stated (FIG. 2)): about 15%
- decrease in gap, treated versus controls ([1]; topical, time not stated (FIG. 3)): about 15%
- decrease in gap size ([1]; wounds treated for 7 days, route not stated): 62%
- decrease in gap size [2, 4]: 28%
- decrease in wound width [2, 4]: 14%
- decrease in gap size [2, 5]: 26%
- decrease in wound width [2, 5]: 10%
- level of healing in steroid treated rats ([2]; topical or intraperitoneal): significant increase in the level of healing
- gap or width closure compared to saline treatment ([2]; topical, day 4, N=3): ≤ 7%
- decrease in gap compared to saline treatment ([2]; topical, day 7): 39%
- decrease in wound width ([2]; topical, day 7): 23%
- corneal epithelial cell migration over media alone (Corneal Epithelial Cell; 4-5 hours of exposure): 2-3 fold
- concentration with the highest level of migration (Corneal Epithelial Cell; tested 0.01-1000 ng/ml): 100 ng/mL
- re-epithelialization of the cornea over untreated control ([3]; about 1 to 25 μg of Tβ4 in saline applied to the eye, 24 hours): 2 fold
- inflammation of treated eyes compared to non-treated corneas ([3]; rat, in vivo): reduced inflammation
